Reference: patent US12723063B2, “GIPR-agonist compounds” (Eli Lilly and Company, priority 2019, dated 2026)
*1 amine or outer side, *2 acyl side, *3 side chain or, on linkers, in order; H or OH if unused. Where a SMILES comes first, the peptide text is derived from it. Side-chain parts run from the residue outwards. [ ]: non-standard residue; d: D form. The star is where a group is joined. C20 diacid = O=C(O)CCCCCCCCCCCCCCCCCCC(=O)*; C18 diacid = O=C(O)CCCCCCCCCCCCCCCCC(=O)*; αMePhe(2-F) = C[C@](N)(Cc1ccccc1F)C(=O)O; γGlu = O=C(O)[C@H](CCC(=O)[*:2])N[*:1]; 4Pal = N[C@@H](Cc1ccncc1)C(=O)O; αMeL = CC(C)C[C@](C)(N)C(=O)O; Iva = CC[C@](C)(N)C(=O)O; Orn = NCCC[C@H](N)C(=O)O; AEEA = NCCOCCOCC(=O)O; Aib = CC(C)(N)C(=O)O

Experiments:
human GIPR = target: T1, human GIPR (Homo sapiens, UniProt P48546); assay: [125I]-GIP binding, SPA with WGA beads, 0.1% bacitracin; details: geometric mean, read-out: hGIPR Ki
T1 construct: expressed in transfected cells; crude membranes
T1 sequence (P48546 22-466): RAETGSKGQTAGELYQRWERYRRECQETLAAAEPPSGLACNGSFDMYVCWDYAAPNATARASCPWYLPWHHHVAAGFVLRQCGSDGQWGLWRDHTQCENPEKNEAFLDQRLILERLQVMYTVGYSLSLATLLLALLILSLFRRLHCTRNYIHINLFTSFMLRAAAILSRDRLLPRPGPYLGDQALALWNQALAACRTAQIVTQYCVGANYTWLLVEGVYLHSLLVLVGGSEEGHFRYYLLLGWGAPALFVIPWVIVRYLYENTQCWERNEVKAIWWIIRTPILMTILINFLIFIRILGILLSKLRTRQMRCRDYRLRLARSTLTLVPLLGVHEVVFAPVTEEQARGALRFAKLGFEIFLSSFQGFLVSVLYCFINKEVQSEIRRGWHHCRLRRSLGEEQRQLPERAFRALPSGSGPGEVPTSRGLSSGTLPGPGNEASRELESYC
How it was run: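 Ki values are geometric means (SEM, n independent days), derived from four-parameter nonlinear regression of IC50. Membranes came from hGIPR-expressing CHO cells.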

human GcgR = target: T2, human GcgR (Homo sapiens, UniProt P47871); assay: [125I]-Glucagon binding, SPA with WGA beads, 0.1% bacitracin; details: geometric mean, read-out: hGcgR Ki
T2 construct: expressed in transfected cells; crude membranes
How it was run: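 SPA competition binding with WGA beads on crude membranes from HEK293 cells stably expressing hGcgR. Buffer: 25 mM HEPES pH 7.4, 2.5 mM CaCl2, 1 mM MgCl2, 0.1% bacitracin, 0.003% Tween-20; 10-point 3-fold dilutions, NSB with 1 μM Gcg.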

T2 sequence (P47871 26-477): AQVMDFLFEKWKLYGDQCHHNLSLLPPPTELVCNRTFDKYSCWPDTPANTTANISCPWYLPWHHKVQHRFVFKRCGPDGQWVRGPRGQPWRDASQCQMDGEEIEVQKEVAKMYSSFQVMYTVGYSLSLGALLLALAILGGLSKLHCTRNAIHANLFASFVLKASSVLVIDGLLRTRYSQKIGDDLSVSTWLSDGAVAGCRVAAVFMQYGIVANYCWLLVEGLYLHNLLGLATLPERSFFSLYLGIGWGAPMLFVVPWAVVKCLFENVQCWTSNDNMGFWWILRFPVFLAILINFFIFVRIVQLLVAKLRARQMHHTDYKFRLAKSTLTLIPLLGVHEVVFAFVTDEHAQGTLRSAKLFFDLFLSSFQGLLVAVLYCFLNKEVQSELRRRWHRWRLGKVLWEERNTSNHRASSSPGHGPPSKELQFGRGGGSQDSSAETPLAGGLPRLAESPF

Row | SMILES | Ki (human GIPR) | Ki (human GcgR)
1 | CC[C@H](C)[C@H](NC(=O)[C@H](CO)NC(=O)[C@H](Cc1ccc(O)cc1)NC(=O)[C@H](CC(=O)O)NC(=O)[C@H](CO)NC(=O)[C@@H](NC(=O)[C@](C)(Cc1ccccc1F)NC(=O)[C@@H](NC(=O)CNC(=O)[C@H](CCC(=O)O)NC(=O)C(C)(C)NC(=O)[C@@H](N)Cc1ccc(O)cc1)[C@@H](C)O)[C@@H](C)CC)C(=O)N[C@@H](CC(C)C)C(=O)N[C@@H](CC(C)C)C(=O)N[C@@H](CC(=O)O)C(=O)N[C@@H](CCCCN)C(=O)N[C@H](C(=O)N[C@@H](Cc1c[nH]cn1)C(=O)N[C@@H](CCC(N)=O)C(=O)NC(C)(C)C(=O)N[C@@H](CC(=O)O)C(=O)N[C@@H](Cc1ccccc1)C(=O)N[C@H](C(=O)N[C@@H](CCC(=O)O)C(=O)N[C@@H](Cc1ccncc1)C(=O)N[C@@H](CCCCNC(=O)COCCOCCNC(=O)COCCOCCNC(=O)CC[C@H](NC(=O)CCCCCCCCCCCCCCCCCCC(=O)O)C(=O)O)C(=O)N[C@@H](CC(C)C)C(=O)N[C@@H](CCC(=O)O)C(=O)NCC(=O)NCC(=O)N1CCC[C@H]1C(=O)N[C@@H](CO)C(=O)N[C@@H](CO)C(=O)NCC(=O)N[C@@H](C)C(=O)N1CCC[C@H]1C(=O)N1CCC[C@H]1C(=O)N1CCC[C@H]1C(=O)N[C@@H](CO)C(N)=O)C(C)C)[C@@H](C)CC [Example 119] (H-Y[Aib]EGT[αMePhe(2-F)]ISDYSILLDKIHQ[Aib]DFVE[4Pal]K([AEEA-AEEA-γGlu-C20 diacid])LEGGPSSGAPPPS-NH2) | 0.129 nM | 68.8 nM
2 | CC[C@H](C)[C@H](NC(=O)[C@H](CC(C)C)NC(=O)[C@@H](NC(=O)CNC(=O)[C@H](CCC(=O)O)NC(=O)C(C)(C)NC(=O)[C@@H](N)Cc1ccc(O)cc1)[C@@H](C)O)C(=O)N[C@@H](CO)C(=O)N[C@@H](CC(=O)O)C(=O)N[C@@H](Cc1ccc(O)cc1)C(=O)N[C@@H](CO)C(=O)N[C@H](C(=O)N[C@@](C)(CC(C)C)C(=O)N[C@@H](CC(C)C)C(=O)N[C@@H](CC(=O)O)C(=O)N[C@@H](CCCCN)C(=O)N[C@@H](CCCCNC(=O)COCCOCCNC(=O)COCCOCCNC(=O)CC[C@H](NC(=O)CCCCCCCCCCCCCCCCCCC(=O)O)C(=O)O)C(=O)N[C@@H](Cc1c[nH]cn1)C(=O)N[C@@H](CCC(N)=O)C(=O)NC(C)(C)C(=O)N[C@@H](CC(=O)O)C(=O)N[C@@H](Cc1ccccc1)C(=O)N[C@H](C(=O)N[C@@H](CCC(=O)O)C(=O)N[C@@H](Cc1ccncc1)C(=O)N[C@@H](CC(C)C)C(=O)N[C@@H](CC(C)C)C(=O)N[C@@H](CCC(=O)O)C(=O)N[C@@H](C)C(=O)NCC(=O)N1CCC[C@H]1C(=O)N[C@@H](CO)C(=O)N[C@@H](CO)C(=O)NCC(=O)N[C@@H](C)C(=O)N1CCC[C@H]1C(=O)N1CCC[C@H]1C(=O)N1CCC[C@H]1C(=O)N[C@@H](CO)C(N)=O)C(C)C)[C@@H](C)CC [Example 89] (H-Y[Aib]EGTLISDYSI[αMeL]LDKK([AEEA-AEEA-γGlu-C20 diacid])HQ[Aib]DFVE[4Pal]LLEAGPSSGAPPPS-NH2) | 0.072 nM | 611 nM
3 | CC[C@H](C)[C@H](NC(=O)[C@H](Cc1ccccc1)NC(=O)[C@@H](NC(=O)CNC(=O)[C@H](CCC(=O)O)NC(=O)C(C)(C)NC(=O)[C@@H](N)Cc1ccc(O)cc1)[C@@H](C)O)C(=O)N[C@@H](CO)C(=O)N[C@@H](CC(=O)O)C(=O)N[C@@H](Cc1ccc(O)cc1)C(=O)N[C@@H](CO)C(=O)N[C@H](C(=O)N[C@@](C)(CC(C)C)C(=O)N[C@@H](CC(C)C)C(=O)N[C@@H](CC(=O)O)C(=O)N[C@@H](CCCN)C(=O)N[C@@H](CCCCNC(=O)COCCOCCNC(=O)COCCOCCNC(=O)CC[C@H](NC(=O)CCCCCCCCCCCCCCCCCCC(=O)O)C(=O)O)C(=O)N[C@@H](Cc1c[nH]cn1)C(=O)N[C@@H](CCC(N)=O)C(=O)NC(C)(C)C(=O)N[C@@H](CC(=O)O)C(=O)N[C@@H](Cc1ccccc1)C(=O)N[C@H](C(=O)N[C@@H](CCC(=O)O)C(=O)N[C@@H](Cc1ccncc1)C(=O)N[C@@H](CC(C)C)C(=O)N[C@@H](CC(C)C)C(=O)N[C@@H](CCC(=O)O)C(=O)N[C@@H](C)C(=O)NCC(=O)N1CCC[C@H]1C(=O)N[C@@H](CO)C(=O)N[C@@H](CO)C(=O)NCC(=O)N[C@@H](C)C(=O)N1CCC[C@H]1C(=O)N1CCC[C@H]1C(=O)N1CCC[C@H]1C(=O)N[C@@H](CO)C(N)=O)C(C)C)[C@@H](C)CC [Example 4] | 0.062 nM | 431 nM
4 | CC[C@H](C)[C@H](NC(=O)[C@H](CO)NC(=O)[C@H](Cc1ccc(O)cc1)NC(=O)[C@H](CC(=O)O)NC(=O)[C@H](CO)NC(=O)[C@@H](NC(=O)[C@](C)(Cc1ccccc1F)NC(=O)[C@@H](NC(=O)CNC(=O)[C@H](CCC(=O)O)NC(=O)C(C)(C)NC(=O)[C@@H](N)Cc1ccc(O)cc1)[C@@H](C)O)[C@@H](C)CC)C(=O)N[C@@H](C)C(=O)N[C@@H](CC(C)C)C(=O)N[C@@H](CC(=O)O)C(=O)N[C@@H](CCCCN)C(=O)N[C@H](C(=O)N[C@@H](Cc1c[nH]cn1)C(=O)N[C@@H](CCC(N)=O)C(=O)NC(C)(C)C(=O)N[C@@H](CC(=O)O)C(=O)N[C@@H](Cc1ccccc1)C(=O)N[C@H](C(=O)N[C@@H](CCC(=O)O)C(=O)N[C@@H](Cc1ccc(O)cc1)C(=O)N[C@@H](CCCCNC(=O)COCCOCCNC(=O)COCCOCCNC(=O)CC[C@H](NC(=O)CCCCCCCCCCCCCCCCCCC(=O)O)C(=O)O)C(=O)N[C@@H](CC(C)C)C(=O)N[C@@H](CCC(=O)O)C(=O)NCC(=O)NCC(=O)N1CCC[C@H]1C(=O)N[C@@H](CO)C(=O)N[C@@H](CO)C(=O)NCC(=O)N[C@@H](C)C(=O)N1CCC[C@H]1C(=O)N1CCC[C@H]1C(=O)N1CCC[C@H]1C(=O)N[C@@H](CO)C(N)=O)C(C)C)[C@@H](C)CC [Example 99] (H-Y[Aib]EGT[αMePhe(2-F)]ISDYSIALDKIHQ[Aib]DFVEYK([AEEA-AEEA-γGlu-C20 diacid])LEGGPSSGAPPPS-NH2) | 0.0341 nM | 174 nM
5 | CC[C@H](C)[C@H](NC(=O)[C@H](CO)NC(=O)[C@H](Cc1ccc(O)cc1)NC(=O)[C@H](CC(=O)O)NC(=O)[C@H](CO)NC(=O)[C@@H](NC(=O)[C@H](Cc1ccccc1)NC(=O)[C@@H](NC(=O)CNC(=O)[C@H](CCC(=O)O)NC(=O)[C@@H](C)NC(=O)[C@@H](N)Cc1ccc(O)cc1)[C@@H](C)O)[C@@H](C)CC)C(=O)N[C@@H](CC(C)C)C(=O)N[C@@H](CC(C)C)C(=O)N[C@@H](CC(=O)O)C(=O)N[C@@H](CCCCN)C(=O)N[C@@H](CCCCNC(=O)COCCOCCNC(=O)COCCOCCNC(=O)CC[C@H](NC(=O)CCCCCCCCCCCCCCCCC(=O)O)C(=O)O)C(=O)N[C@@H](C)C(=O)N[C@@H](CCC(N)=O)C(=O)NC(C)(C)C(=O)N[C@@H](CC(=O)O)C(=O)N[C@@H](Cc1ccccc1)C(=O)N[C@H](C(=O)N[C@@H](CC(N)=O)C(=O)N[C@@H](Cc1ccncc1)C(=O)N[C@@H](CC(C)C)C(=O)N[C@@H](CC(C)C)C(=O)N[C@@H](C)C(=O)N[C@@H](CCC(N)=O)C(=O)NCC(=O)N1CCC[C@H]1C(=O)N[C@@H](CO)C(=O)N[C@@H](CO)C(=O)NCC(=O)N[C@@H](C)C(=O)N1CCC[C@H]1C(=O)N1CCC[C@H]1C(=O)N1CCC[C@H]1C(=O)N[C@@H](CO)C(N)=O)C(C)C [Example 18] (H-Y[dA]EGTFISDYSILLDKK([AEEA-AEEA-γGlu-C18 diacid])AQ[Aib]DFVN[4Pal]LLAQGPSSGAPPPS-NH2) | 0.0331 nM | 463 nM
6 | CC[C@H](C)[C@H](NC(=O)[C@H](CO)NC(=O)[C@H](Cc1ccc(O)cc1)NC(=O)[C@H](CC(=O)O)NC(=O)[C@H](CO)NC(=O)[C@@H](NC(=O)[C@](C)(CC)NC(=O)[C@@H](NC(=O)CNC(=O)[C@H](CCC(=O)O)NC(=O)C(C)(C)NC(=O)[C@@H](N)Cc1ccc(O)cc1)[C@@H](C)O)[C@@H](C)CC)C(=O)N[C@@](C)(CC(C)C)C(=O)N[C@@H](CC(C)C)C(=O)N[C@@H](CC(=O)O)C(=O)N[C@@H](CCCN)C(=O)N[C@@H](CCCCNC(=O)COCCOCCNC(=O)COCCOCCNC(=O)CC[C@H](NC(=O)CCCCCCCCCCCCCCCCCCC(=O)O)C(=O)O)C(=O)N[C@@H](Cc1c[nH]cn1)C(=O)N[C@@H](CCC(N)=O)C(=O)NC(C)(C)C(=O)N[C@@H](CC(=O)O)C(=O)N[C@@H](Cc1ccccc1)C(=O)N[C@H](C(=O)N[C@@H](CCC(=O)O)C(=O)N[C@@H](Cc1ccncc1)C(=O)N[C@@H](CC(C)C)C(=O)N[C@@H](CC(C)C)C(=O)N[C@@H](CCC(=O)O)C(=O)N[C@H](C(=O)NCC(=O)N1CCC[C@H]1C(=O)N[C@@H](CO)C(=O)N[C@@H](CO)C(=O)NCC(=O)N[C@@H](C)C(=O)N1CCC[C@H]1C(=O)N1CCC[C@H]1C(=O)N1CCC[C@H]1C(=O)N[C@@H](CO)C(N)=O)[C@@H](C)O)C(C)C [Example 77] (H-Y[Aib]EGT[Iva]ISDYSI[αMeL]LD[Orn]K([AEEA-AEEA-γGlu-C20 diacid])HQ[Aib]DFVE[4Pal]LLETGPSSGAPPPS-NH2) | 0.0841 nM | > 958 nM
